Assay results taken from paper doi:10.1101/2025.11.20.689572v1 (biorxiv, 2025).
Read-outs that look alike come from different tables or passages of the source.

Experiments:
5-HT1D = biological target: T1, 5-HT1D (Homo sapiens, UniProt P28221); assay: TRUPATH BRET2 G protein dissociation, HEK293; assay type: cell-based; conditions: HBSS, […] HEPES pH […] °C; agonist mode
T1 construct: gene HTR1D; full-length receptor; HEK293 with TRUPATH sensors (function)

KOR = biological target: T2, KOR (Homo sapiens, UniProt P41145); assay: competitive radioligand binding, HEK293 membranes
T2 construct: gene OPRK1; full-length receptor; HEK293 cell membranes
Text: competitive radioligand binding, HEK293 membranes on KOR

α2A = biological target: T3, α2A (Homo sapiens, UniProt P08913); assay: competitive radioligand binding, HEK293 membranes
T3 construct: gene ADRA2A; full-length receptor; HEK293 cell membranes
Text: competitive radioligand binding, HEK293 membranes on α2A

CHRM2 = biological target: T4, CHRM2 (Homo sapiens, UniProt P08172); assay: cell-based; set-up: PRESTO-Tango beta-arrestin2 recruitment, luciferase luminescence, concentration-response; conditions: HTLA, Assay=Tango, agonist mode, % of control agonist
T4 sequence (P08172 1-466): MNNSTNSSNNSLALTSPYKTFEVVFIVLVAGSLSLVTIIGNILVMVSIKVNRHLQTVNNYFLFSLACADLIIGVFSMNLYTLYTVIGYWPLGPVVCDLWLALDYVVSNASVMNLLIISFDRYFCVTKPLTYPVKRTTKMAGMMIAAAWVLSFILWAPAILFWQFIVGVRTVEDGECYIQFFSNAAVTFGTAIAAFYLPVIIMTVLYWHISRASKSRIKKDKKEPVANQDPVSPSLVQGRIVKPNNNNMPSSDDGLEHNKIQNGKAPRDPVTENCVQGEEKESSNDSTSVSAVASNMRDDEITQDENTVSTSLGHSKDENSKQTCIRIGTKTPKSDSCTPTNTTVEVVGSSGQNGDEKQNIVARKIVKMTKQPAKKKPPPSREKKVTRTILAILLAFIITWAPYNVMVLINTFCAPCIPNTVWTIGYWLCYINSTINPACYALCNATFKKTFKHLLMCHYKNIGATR
Description: (§1) Off-target agonism across the human GPCRome was profiled using PRESTO-Tango, following established protocols with minor adaptations [10]–[12]. […] After ~6 h recovery, cells were transfected with 20 ng plasmid DNA per well and incubated overnight. The next day, 10 µL of test compound (prepared in DMEM + 1% dFBS) was added, and plates were incubated overnight. Media and compounds were removed, and 20 µL per well of Bright-Glo luciferase reagent diluted in assay buffer (Hank’s Balanced Salt Solution (HBSS), 20 mM HEPES, pH 7.4) was added. After 20 min at room temperature (dark), luminescence was recorded. Each plate included the dopamine D2 receptor (DRD2) stimulated with 100 nM quinpirole as a positive control. For the GPCRome screen, each receptor was tested in quadruplicate at 0 and 10 µM compound (final). Responses were expressed as fold change relative to the basal (0 µM) condition. Follow-up concentration–response assays were performed under identical conditions except that serial dilutions of compounds (maximum ~30 µM, final) were added to generate full concentration–response curves.

CHRM1 = biological target: T5, CHRM1 (Homo sapiens, UniProt P11229); assay: cell-based; set-up: PRESTO-Tango beta-arrestin2 recruitment, luciferase luminescence, concentration-response; conditions: HTLA, Assay=Tango, agonist mode, % of control agonist
T5 sequence (P11229 1-460): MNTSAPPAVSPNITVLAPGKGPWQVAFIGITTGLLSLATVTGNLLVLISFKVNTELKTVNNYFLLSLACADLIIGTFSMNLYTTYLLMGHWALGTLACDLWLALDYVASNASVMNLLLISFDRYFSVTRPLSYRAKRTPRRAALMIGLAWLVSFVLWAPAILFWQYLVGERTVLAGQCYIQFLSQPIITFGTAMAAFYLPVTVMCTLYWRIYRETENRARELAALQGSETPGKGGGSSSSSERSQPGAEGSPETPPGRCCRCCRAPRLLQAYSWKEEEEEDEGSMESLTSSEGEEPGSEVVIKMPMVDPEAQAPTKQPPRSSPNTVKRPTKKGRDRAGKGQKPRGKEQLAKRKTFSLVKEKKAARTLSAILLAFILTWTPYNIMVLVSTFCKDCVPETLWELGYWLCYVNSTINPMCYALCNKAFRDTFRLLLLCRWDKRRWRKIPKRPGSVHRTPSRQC
Description: as §1

HRH3 = HRH3 (Homo sapiens, UniProt Q9Y5N1); assay: cell-based; set-up: PRESTO-Tango beta-arrestin2 recruitment, luciferase luminescence, concentration-response; conditions: HTLA, Assay=Tango, agonist mode, % of control agonist
Description: as §1

HTR1D = HTR1D (Homo sapiens, UniProt P28221); assay: cell-based; set-up: PRESTO-Tango beta-arrestin2 recruitment, luciferase luminescence, concentration-response; conditions: HTLA, Assay=Tango, agonist mode, % of control agonist
Description: as §1

HRH4 = HRH4 (Homo sapiens, UniProt Q9H3N8); assay: cell-based; set-up: PRESTO-Tango beta-arrestin2 recruitment, luciferase luminescence, concentration-response; conditions: HTLA, Assay=Tango, agonist mode, % of control agonist
Description: as §1

CHRM4 = biological target: T6, CHRM4 (Homo sapiens, UniProt P08173); assay: cell-based; set-up: PRESTO-Tango beta-arrestin2 recruitment, luciferase luminescence, concentration-response; conditions: HTLA, Assay=Tango, agonist mode, % of control agonist
T6 sequence (P08173 1-479): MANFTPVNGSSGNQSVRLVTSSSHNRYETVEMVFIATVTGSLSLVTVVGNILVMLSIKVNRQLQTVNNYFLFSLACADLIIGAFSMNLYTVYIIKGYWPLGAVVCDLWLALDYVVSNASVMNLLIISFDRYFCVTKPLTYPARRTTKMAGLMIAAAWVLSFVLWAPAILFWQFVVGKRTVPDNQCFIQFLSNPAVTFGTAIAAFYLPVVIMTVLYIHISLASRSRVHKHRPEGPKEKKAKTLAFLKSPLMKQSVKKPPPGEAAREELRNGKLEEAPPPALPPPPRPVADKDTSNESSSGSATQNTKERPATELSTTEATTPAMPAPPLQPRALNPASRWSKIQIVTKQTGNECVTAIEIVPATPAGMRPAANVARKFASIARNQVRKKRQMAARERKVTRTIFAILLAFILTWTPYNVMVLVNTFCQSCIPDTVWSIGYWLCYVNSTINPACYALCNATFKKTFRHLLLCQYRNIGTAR
Description: as §1

α2C = biological target: T7, α2C (Homo sapiens, UniProt P18825); assay: competitive radioligand binding, HEK293 membranes
T7 construct: gene ADRA2C; full-length receptor; HEK293 cell membranes
Text: competitive radioligand binding, HEK293 membranes on α2C

[1] = read-out: N-Desmethyl Xanomeline

With `CCCCCCOc1nsnc1C1=CCCNC1` [N-desmethylxanomeline] the EC50 (5-HT1D) was “full or partial agonists at 5-HT1D and 5-HT1A in a transducer-dependent fashion”, the Ki (KOR) was 1020 nM and the Ki (α2A) was 437 nM. The Emax (CHRM2; [1]) was 42.6%, the Emax (CHRM1; [1]) was 28.4% and the Emax (HRH3; [1]) was 16.8%. The Emax (HTR1D; [1]) was 51.2%, the Emax (HRH4; [1]) was 10.4% and the Emax (CHRM4; [1]) was 67.5%. The Ki (α2C) was 209 nM.
For `CCCCCCOc1nsnc1C1=CCCN(C)C1` [Xanomeline], the EC50 (5-HT1D) was “full or partial agonists at 5-HT1D and 5-HT1A in a transducer-dependent fashion”, the Ki (KOR) was 1780 nM and the Ki (α2A) was 955 nM. For the same molecule, the Emax (CHRM2; read-out: Xanomeline) was 45.5%, the Emax (CHRM1; read-out: Xanomeline) was 67% and the Emax (HRH3; read-out: Xanomeline) was 2.89%. The Emax (HTR1D; read-out: Xanomeline) was 73.3%, the Emax (HRH4; read-out: Xanomeline) was 37.3% and the Emax (CHRM4; read-out: Xanomeline) was 72.5%. For the same molecule, the Ki (α2C) was 158 nM.
